As a reminder, the IC50 is the concentration needed to halve the response being measured.

The values that follow come from patent US10343997B1, “Ursolic acid derivatives” (KING SAUD UNIVERSITY, priority 2018, dated 2019).

For assay [1], the system named is guinea-pig isolated ileum. The assay is described as follows: Relaxation of electrically induced contraction of guinea-pig isolated ileum. The format is cell-based. Conditions: Cavia porcellus, stimulation 25V, 0.1 Hz, 5 ms, means ± s.e., n = 6, read-out: pIC50 (−log IC50) for relaxation of electrically induced contraction (converted). The method, then: (§1) Male guinea-pigs, weighing between 200-400 g, were killed by a blow on the head after previously being deprived of food for 18 h but having had free access to water. The non-terminal part of the ileum was removed and cut into 20-mm long segments, which were suspended in an organ bath and connected to an isotonic transducer. The organ bath contained 50 mL physiological solution oxygenated with 95% O2 and 5% […] at 37° C. The physiological solution was typically normal saline with 0.9% sodium chloride. The fluid of the organ bath was changed every 15 min. The ileal segments were subjected to a resting tension of 0.5-1 g and left to equilibrate for 60 min.
Each segment was treated with only one compound. The pIC50 (−log IC50) value of each compound was calculated from concentration-response curves.

For assay [2], the system named is rat isolated aorta. The assay is described as follows: Relaxation of potassium-induced contraction of rat isolated aorta. It counts as cell-based. Conditions: rat isolated aorta pre-contracted with 40 mM KCl; means ± s.e., n = 6; read-out: pIC50 (−log IC50) for relaxation of potassium-induced contraction (converted). The method, then:
Six white male rats were killed by a blow on the head and decapitation. The thoracic aorta of each rat was isolated, carefully dissected from the surrounding tissues, and cut into 5 segments, 3 mm in length. The segments were joined together, suspended in Krebs solution (composition in mmol: NaCl 118, KCl 4.8, CaCl2, 2.5, KH2PO4 1.2, MgSO4 1.2, NaHCO3 25 and glucose 10) at 37° C. and oxygenated with 95% O2 and 5% CO2. The fluid of the organ bath was changed every 15 min. The tissue was subject to a resting tension of 1 g and left to equilibrate for 1 h. The contractions of isolated aortic rings were recorded by means of a force transducer and Beckman physiograph. […] The pre-contracted tissue was then subject to increasing amounts of one of the calcium channel blockers added to the organ bath. The pIC50 value of each compound was calculated from concentration-response curves.

The subject of assay [3] is guinea-pig ileum. The assay is described as follows: Calcium-induced contraction in K+-depolarized guinea-pig ileum. The format is cell-based. The following applies: 2×10^−9 M of compound; for Emax at 0.002 µM: Cavia porcellus, contraction induced by 3 mM calcium, 84.44% without antagonist, read-out: calcium-induced contractions, % of the maximum response. The method, then: as §1
As a control, increasing concentrations of CaCl2 (0.1, 0.3, 1, 3, 10 mmol) were added to an organ bath and the contractile response of the ileum was recorded. Tissues were then preincubated for 15-20 min with one concentration of each calcium channel blocker and increasing concentrations of CaCl2 were again added to the bathing media.
Response percentage ratios were calculated by dividing the percent of maximum responses induced by 3 mM calcium in the presence of each calcium-channel blocker at a concentration of 2×10^−9 M by the percent of maximum response induced by 3 mM calcium in the absence of any calcium-channel blocker.

In assay [4] the target is voltage-dependent calcium channel. Description: In vitro 3H-nitrendipine binding assay. The following applies: competition with 3H-nitrendipine, plasma membrane from bovine cerebral cortices.
The test system of assay [5] is pithed rat. The assay is described as follows: In vivo evaluation of calcium blockade in the pithed rat (cardio accelerator response). How it is done: Calcium blockers in the pithed rat were calculated in vivo.
Male Sprague-Dawley rats (250-350 g) were anaesthetized with methohexitone sodium (50 mg/kg, intraperitoneal injection). Following cannulation of the trachea, the rats were pithed through one orbit with a stainless steel rod and immediately artificially respired with room air (78 strokes/min, 1 mil/100 g body weight) via a Palmer small animal respiration pump. A jugular vein was cannulated for administration of drugs. Arterial blood pressure was recorded from a carotid artery using a pressure transducer.
Heart rate was derived from the phasic arterial pressure signal with a phase lock loop ratemeter (BRL Instrument Services). […] The animals were kept warm by an incandescent lamp positioned about 25 cm above them. The pithing rod was withdrawn until the tip reached the thoracic portion of the spinal cord. All rats then received (+)tubocurarine (1.5 mg/kg, intravenously) and were bilaterally vagotomized.
The cardio accelerator response was obtained by continuous electrical stimulation of the thoracic spinal cord with square wave pulses of 0.5 ms duration, at supramaximal voltage at a frequency of 0.5 Hz using the pithing rod as a stimulating electrode. An indifferent electrode was inserted subcutaneously in the femoral region. Only rats with a resulting tachycardia of more than 100 beats/min were included in the experiments. When the cardio accelerator response was stabilized for about 3-5 min, cumulative intravenous doses of test drug or corresponding vehicle were administered. Successive doses were given when the response to the previous dose stabilized.
Doses of β-blockers or calcium-antagonists, which reduce the tachycardia to 50%, were tested again. Three minutes after administration of the drug, calcium gluconate (1 mg/min) or water (0.1 ml/min) was infused using a Harvard apparatus compact infusion pump.
The level of tachycardia immediately prior to drug administration was taken as 100% and responses to drugs were calculated as a percentage of the predose tachycardia. […] Significance of differences between the groups receiving calcium gluconate and their parallel vehicle controls were calculated by a Student's t-test.

Assay [6] has as its system cardiac function. Conditions: background statement; cited from earlier work.

As for `COC(=O)C1=C(C)NC(C)=C(OC(C)=O)C1[C@]12CC[C@@H](C)[C@H](C)[C@H]1C1=CC[C@@H]3[C@@]4(C)CC[C@H](OC)C(C)(C)C4CC[C@@]3(C)[C@]1(C)CC2` (stereo partly shown) [Compound 4, Dihydropyridine-3,5-dicarboxylate Ursolic Acid Derivative], the IC50 was 0.347 nM in assay [1] and 0.0174 nM in assay [2]. Moreover, in assay [3] (3 mM calcium, response with blocker divided by response without), the Response percentage ratio is on record as 0.15 ± 0.009. Further, in assay [3], the Emax at 0.002 µM worked out at 27%. In addition, the “The affinity constant Ki” value in assay [4] is recorded as 3.1 × 10^−13 mol/1. For the same molecule, the ID50 in assay [5] (inhibition of electrically induced tachycardia, cumulative intravenous doses) is 71620 nM. The “calcium channel blocker selectivity in pithed rat assay” value in assay [5] (result in words) is recorded as “selective calcium channel blocker”.
For `COC(=O)C1=C(C)NC(C)=C(C(=O)OC)C1c1ccccc1[N+](=O)[O-]` [Nifedipine, reference compound], the IC50 is 35.5 nM in assay [1] and 5.13 nM in assay [2]. For the same molecule, in assay [3], the Emax at 0.002 µM was determined as 74%.
`CCN(CC)CC(=O)Nc1c(C)cccc1C` [lignocaine, reference compound]: the “effect on tachycardia elicited by electrical stimulation of the spinal cord” value in assay [5] (result in words) is on record as “no effect”.
In the case of `O=C(NCCO[N+](=O)[O-])c1cccnc1` [nicorandil, reference compound], in assay [5] (result in words), the “effect on tachycardia elicited by electrical stimulation of the spinal cord” value was “no effect”.
On to `C[C@H]1[C@H](C)CC[C@]2(C(=O)O)CC[C@]3(C)C(=CC[C@@H]4[C@@]5(C)CC[C@H](O)C(C)(C)[C@@H]5CC[C@]43C)[C@H]12` [ursolic acid], for which, in assay [6], the heart rate decrease is reported as 32%.
